For five compounds, mutagenic call results are on record in PubChem BioAssay AID1259407 (Chemical Carcinogenesis Research Information System (CCRIS), 2018).

Activity calls are given as the source filed them. No rule for the calls is given here.

This series deals with CCRIS mutagenicity, Ames/micronucleus/aberration tests. The series is described as follows: CCRIS mutagenicity studies.
Where [1] appears, read: Test System: AMES SALMONELLA TYPHIMURIUM, Strain/Indicator: TA98, Metabolic Activation: NONE, Method: PREINCUBATION
Where [2] appears, read: Test System: AMES SALMONELLA TYPHIMURIUM, Strain/Indicator: TA98, Metabolic Activation: NONE, Method: STANDARD PLATE.
[3] abbreviates: Test System: AMES SALMONELLA TYPHIMURIUM, Strain/Indicator: TA98, Metabolic Activation: RAT, LIVER, S-9, AROCLOR 1254, Method: PREINCUBATION
Setting [4] is: Test System: AMES SALMONELLA TYPHIMURIUM, Strain/Indicator: TA100, Metabolic Activation: NONE, Method: PREINCUBATION
[5] abbreviates: Test System: AMES SALMONELLA TYPHIMURIUM, Strain/Indicator: TA100, Metabolic Activation: NONE, Method: STANDARD PLATE.
Setting [6] is: Test System: AMES SALMONELLA TYPHIMURIUM, Strain/Indicator: TA100, Metabolic Activation: RAT, LIVER, S-9, AROCLOR 1254, Method: PREINCUBATION
The mark [7] stands for this setting: Test System: AMES SALMONELLA TYPHIMURIUM, Strain/Indicator: TA98, Metabolic Activation: RAT, LIVER, S-9, AROCLOR 1254, Method: STANDARD PLATE.
Where [8] appears, read: Test System: AMES SALMONELLA TYPHIMURIUM, Strain/Indicator: TA100, Metabolic Activation: RAT, LIVER, S-9, AROCLOR 1254, Method: STANDARD PLATE.

On to `Cc1cc2ncccc2c2nc(N)n(C)c12`, for which the mutagenic call runs as follows: (End Point: IN VITRO MICRONUCLEUS, Test System: CHL/IU CELLS, Metabolic Activation: RAT, LIVER, S-9, PHENOBARBITAL AND 5,6-BENZOFLAVONE) “active; positive”; (Test System: AMES SALMONELLA TYPHIMURIUM, Strain/Indicator: TA98(1,8-DNP6), Metabolic Activation: RAT, LIVER, S-9, Method: STANDARD PLATE) “inactive; negative”; (Test System: AMES SALMONELLA TYPHIMURIUM, Strain/Indicator: TA98, Metabolic Activation: HAMSTER, LIVER, HEPATOCYTES, Method: STANDARD PLATE) “active; positive”; (Test System: AMES SALMONELLA TYPHIMURIUM, Strain/Indicator: TA98, Metabolic Activation: HUMAN, BLOOD, CYTOSOL, Method: PREINCUBATION) “active; positive”; under setting [1], “inactive; negative”; under setting [2], “inactive; negative”. The mutagenic call is, setting by setting: (Test System: AMES SALMONELLA TYPHIMURIUM, Strain/Indicator: TA98, Metabolic Activation: RAT, LIVER, HEPATOCYTES, AROCLOR 1254, Method: PREINCUBATION) “active; positive”; (Test System: AMES SALMONELLA TYPHIMURIUM, Strain/Indicator: TA98, Metabolic Activation: RAT, LIVER, HEPATOCYTES, Method: PREINCUBATION) “active; positive”; (Test System: AMES SALMONELLA TYPHIMURIUM, Strain/Indicator: TA98, Metabolic Activation: RAT, LIVER, HEPATOCYTES, Method: STANDARD PLATE) “active; positive”; under setting [3], “active; positive”; (Test System: AMES SALMONELLA TYPHIMURIUM, Strain/Indicator: TA98, Metabolic Activation: RAT, LIVER, S-9, N-BENZYLIMIDAZOLE, Method: PREINCUBATION) “active; positive”; (Test System: AMES SALMONELLA TYPHIMURIUM, Strain/Indicator: TA98, Metabolic Activation: RAT, LIVER, S-9, Method: STANDARD PLATE) “active; positive”. In addition, the mutagenic call (Test System: AMES SALMONELLA TYPHIMURIUM, Strain/Indicator: TA98, Metabolic Activation: S-9, Method: STANDARD PLATE) was “active; positive”; the mutagenic call (Test System: AMES SALMONELLA TYPHIMURIUM, Strain/Indicator: TA98, Method: STANDARD PLATE) was “active; positive”; the mutagenic call under setting [4] is “inactive; negative”; the mutagenic call under setting [5] was “inactive; negative”; the mutagenic call under setting [6] was “active; positive”; the mutagenic call (Test System: AMES SALMONELLA TYPHIMURIUM, Strain/Indicator: TA100, Metabolic Activation: RAT, LIVER, S=9, AROCLOR 1254, Method: PREINCUBATION) is “active; positive”. Besides, the mutagenic call (Test System: AMES SALMONELLA TYPHIMURIUM, Strain/Indicator: TA100, Metabolic Activation: S-9, Method: STANDARD PLATE) is “active; positive”; the mutagenic call (Test System: CHINESE HAMSTER V-79, Strain/Indicator: V-79/6-THIOGUANINE, Metabolic Activation: HAMSTER, PANCREAS DUCT, EPITHELIAL CELLS) is “active; positive”; the mutagenic call (Test System: CHINESE HAMSTER V-79, Strain/Indicator: V-79/6-THIOGUANINE, Metabolic Activation: HUMAN, PANCREAS DUCT, EPITHELIAL CELLS) is “active; positive”; the mutagenic call (Test System: CHINESE HAMSTER V-79, Strain/Indicator: V-79/6-THIOGUANINE, Metabolic Activation: RAT, LIVER, HEPATOCYTES, AROCLOR 1254) is “active; positive”; the mutagenic call (Test System: UDS HAMSTER HEPATOCYTES, Strain/Indicator: THY INCORP, Metabolic Activation: NONE, Method: LIQUID SCINTILLATION COUNTING) is “active; positive”; the mutagenic call (Test System: UDS HUMAN HEPATOCYTES, Strain/Indicator: THY INCORP, Metabolic Activation: NONE, Method: AUTORADIOGRAPHY) is “active; positive”. The mutagenic call is, setting by setting: (Test System: UDS MOUSE HEPATOCYTES, Strain/Indicator: THY INCORP, Metabolic Activation: NONE, Method: AUTORADIOGRAPHY) “active; positive”; (Test System: UDS RAT HEPATOCYTES, Strain/Indicator: THY INCORP, Metabolic Activation: NONE, Method: AUTORADIOGRAPHY) “active; positive”; (Test System: UDS RAT HEPATOCYTES, Strain/Indicator: THY INCORP, Metabolic Activation: NONE, Method: LIQUID SCINTILLATION COUNTING) “active; positive”.
Turning to `COc1cc(C(C)=O)cc(OC)c1O`, the mutagenic call was “inactive; negative” (Test System: AMES SALMONELLA TYPHIMURIUM, Strain/Indicator: TA97, Metabolic Activation: NONE, Method: PREINCUBATION); “inactive; negative” (Test System: AMES SALMONELLA TYPHIMURIUM, Strain/Indicator: TA97, Metabolic Activation: RAT, LIVER, S-9, AROCLOR 1254, Method: PREINCUBATION); “inactive; negative” under setting [1]; “inactive; negative” under setting [3]; “inactive; negative” under setting [4]; “inactive; negative” under setting [6]. Besides, the mutagenic call runs as follows: (Test System: AMES SALMONELLA TYPHIMURIUM, Strain/Indicator: TA102, Metabolic Activation: NONE, Method: PREINCUBATION) “inactive; negative”; (Test System: AMES SALMONELLA TYPHIMURIUM, Strain/Indicator: TA102, Metabolic Activation: RAT, LIVER, S-9, AROCLOR 1254, Method: PREINCUBATION) “inactive; negative”.
For the compound `CC(C)NC(=O)/C=C/c1ccc([N+](=O)[O-])o1`, the mutagenic call by setting is: under setting [1], “active; positive”; (Test System: CHINESE HAMSTER V-79, Strain/Indicator: V-79/6-THIOGUANINE, Metabolic Activation: NONE, Method: STANDARD PLATE) “active; positive”.
With `COC(=O)Nc1nc2ccc(OS(=O)(=O)c3ccc(F)cc3)cc2[nH]1`, the mutagenic call was “inactive; negative” under setting [2]; “inactive; negative” under setting [7]; “inactive; negative” under setting [5]; “inactive; negative” under setting [8]; “inactive; negative” (Test System: AMES SALMONELLA TYPHIMURIUM, Strain/Indicator: TA1535, Metabolic Activation: NONE, Method: STANDARD PLATE); “inactive; negative” (Test System: AMES SALMONELLA TYPHIMURIUM, Strain/Indicator: TA1535, Metabolic Activation: RAT, LIVER, S-9, AROCLOR 1254, Method: STANDARD PLATE). For the same compound, the mutagenic call is, setting by setting: (Test System: AMES SALMONELLA TYPHIMURIUM, Strain/Indicator: TA1538, Metabolic Activation: NONE, Method: STANDARD PLATE) “inactive; negative”; (Test System: AMES SALMONELLA TYPHIMURIUM, Strain/Indicator: TA1538, Metabolic Activation: RAT, LIVER, S-9, AROCLOR 1254, Method: STANDARD PLATE) “inactive; negative”; (Test System: E. COLI, Strain/Indicator: WP2, Metabolic Activation: NONE, Method: STANDARD PLATE) “inactive; negative”; (Test System: E. COLI, Strain/Indicator: WP2, Metabolic Activation: RAT, LIVER, S-9, AROCLOR 1254, Method: STANDARD PLATE) “inactive; negative”; (Test System: E. COLI, Strain/Indicator: WP2 UVRA (PKM101), Metabolic Activation: NONE, Method: STANDARD PLATE) “inactive; negative”; (Test System: E. COLI, Strain/Indicator: WP2 UVRA (PKM101), Metabolic Activation: RAT, LIVER, S-9, AROCLOR 1254, Method: STANDARD PLATE) “inactive; negative”. The mutagenic call is “inactive; negative” (Test System: E. COLI, Strain/Indicator: WP2 UVRA, Metabolic Activation: NONE, Method: STANDARD PLATE) and “inactive; negative” (Test System: E. COLI, Strain/Indicator: WP2 UVRA, Metabolic Activation: RAT, LIVER, S-9, AROCLOR 1254, Method: STANDARD PLATE).
Turning to `CC(C)=CCc1ccc(O)c2c(=O)c3c(O)c4c(cc3oc12)O[C@H]1OC=C[C@@]41O`, the mutagenic call is “active; positive” under setting [2], “active; positive” under setting [7], “active; positive” under setting [5] and “active; positive” under setting [8].
